Assay results: patent US6287813A, “Antibiotic-based gene regulation system” (Cistronics Cell Technology GmbH, priority 1999, dated 2001)

Molecular target: T1, PIT2 (Pip-p65)/PPIR (Streptomyces coelicolor, UniProt Q9ADN3)
T1 construct: pMF206 with pMF172 (PPIR-SEAP) in CHO-K1
T1 sequence (Q9ADN3 1-252): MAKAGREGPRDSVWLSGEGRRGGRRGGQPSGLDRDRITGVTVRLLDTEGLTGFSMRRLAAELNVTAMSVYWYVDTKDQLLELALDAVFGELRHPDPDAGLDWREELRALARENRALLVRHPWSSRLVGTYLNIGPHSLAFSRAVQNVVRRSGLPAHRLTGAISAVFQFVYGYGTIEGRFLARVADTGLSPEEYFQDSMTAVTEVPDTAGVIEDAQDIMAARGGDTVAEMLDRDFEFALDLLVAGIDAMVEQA
Test: SEAP reporter assay, CHO-K1 cotransfected with pMF206 (PIT2; Pip-p65) and pMF172 (PPIR-SEAP)
Type: cell-based
Details: +PI (2 μg/ml), 48 hr post transfection
Source text: PIT2, the fusion protein of Pip and the p65 transactivation domain of the human NF-κB transcription activator was cloned in a three step procedure: (i) The p65 domain of the human NF-κB transcription activator was amplified from pSG424-p65 (kindly provided by H. Hauser, GBF, Braunschweig, Germany) with oligos OMF97:
Chinese hamster ovary cells (CHO-K1, ATCC: CCL 61), Baby hamster kidney cells (BHK-21, ATCC: CRL-8544), and HeLa cells (ATCC: CRL-7923) as well as stable cell lines CHO-PIT1, CHO-PIT2, CHO-TWIN195, CHO-TWIN1108 and CHO-PIT1-SEAP were cultured as described before (Fussenegger et al., 1998, Nat. Biotechnol. 16,468-472) in the presence of appropriate antibiotics: G418 400 μg/ml; zeocin 100 μg/ml. Optimized CaPO4 protocols were used for high efficiency transient transfection of all cell lines (id). Transient transfected cells were routinely analyzed after 48 h for GFP or SEAP expression using fluorescence microscopy and p-nitrophenolphosphate-based light absorbance timecourse, respectively, as described before (Fussenegger et al., 1998, Nat. Biotechnol. 16, 468-472; Berger et al., 1988, Gene 66, 1-10 b). […]
In addition, pMF206 (PIT2; Pip-p65) was cotransfected with pMF172 (PPIR -SEAP) and the SEAP readout in the absence and presence of PI (2 μg/ml) was directly compared to CHO-K1 cells cotransfected with pMF156 (PIT; Pip-VP16) and pMF172 (PPIR -SEAP). […]

## pristinamycin I [PI]
  SEAP readout (slope of the p-nitrophenolphosphate-based light absorbance time courses): 0.31 ± 0.003
